Test systems include PC-3 prostate; OVCAR-5 ovarian; IGROV1 ovarian; OVCAR-8 ovarian; DU-145 prostate; OVCAR-3 ovarian; SK-MEL-2 melanoma; OVCAR-4 ovarian; ACHN renal; SF-268 CNS; BT-549 breast; KM12 colon; HCT-116 colon; SW-620 colon; UACC-257 melanoma; RPMI-8226 leukemia; A549 NSCLC; SR leukemia.
Common to all, as to assay: NCI-60 cell line screen, 48 h

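Each compound was tested at five concentrations against cells in 96-well plates for 48 hours. Definition used: TGI = concentration required for complete inhibition of growth.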

Take `CC1OC(OC2C(OC(=O)[C@@H]3CC(C)(C)C[C@@H]4C5=CC[C@@H]6[C@@]7(C)C[C@H](O)[C@H](OC8OC(CO)C(O)C(O)C8O)[C@@](C)(CO)C7[C@H](O)C[C@@]6(C)[C@]5(C)C[C@@H](O)[C@H]43)OCC(O)C2O)C(O)C(O)C1O` (stereo partly specified): the TGI in the experiment with PC-3 prostate, in the experiment with OVCAR-5 ovarian, in the experiment with IGROV1 ovarian, in the experiment with OVCAR-8 ovarian, in the experiment on DU-145 prostate and in the experiment with OVCAR-3 ovarian was above 15 µM in each case. In addition, the TGI with SK-MEL-2 melanoma, in the experiment with OVCAR-4 ovarian, in the experiment with ACHN renal, with SF-268 CNS, with BT-549 breast and in the experiment with KM12 colon was above 15 µM in each case. For the same molecule, the TGI in the experiment on HCT-116 colon, in the experiment with SW-620 colon and with UACC-257 melanoma was above 15 µM in each case.

Regarding `CCN(CC)c1c(-c2c(N(CC)CC)c(OC(C)=O)c3sccn3c2=O)c(=O)n2ccsc2c1OC(C)=O`, the TGI in the experiment on PC-3 prostate, with OVCAR-5 ovarian, in the experiment on IGROV1 ovarian, with RPMI-8226 leukemia, in the experiment with OVCAR-8 ovarian and with DU-145 prostate was above 100 µM in each case. Moreover, the TGI with OVCAR-3 ovarian, in the experiment on SK-MEL-2 melanoma, with OVCAR-4 ovarian, in the experiment with ACHN renal, with SF-268 CNS and in the experiment on BT-549 breast was above 100 µM each time. Also, the TGI in the experiment on KM12 colon, with HCT-116 colon, in the experiment with SW-620 colon and in the experiment on UACC-257 melanoma was above 100 µM throughout.

Consider `NC1CC(Cl)c2c(Cl)sc(Cl)c21` (stereo unspecified), for which the TGI in the experiment on OVCAR-5 ovarian, with IGROV1 ovarian, in the experiment with OVCAR-8 ovarian, with A549 NSCLC, in the experiment with DU-145 prostate and in the experiment on OVCAR-3 ovarian was above 100 µM throughout. For the same molecule, the TGI with SK-MEL-2 melanoma, with SR leukemia, in the experiment on OVCAR-4 ovarian, with ACHN renal, with SF-268 CNS and with BT-549 breast was above 100 µM throughout. Also, the TGI in the experiment with KM12 colon, with HCT-116 colon, with SW-620 colon and in the experiment on UACC-257 melanoma was above 100 µM in each case.

Regarding `CC(C)(C)OC(=O)NC(CCC(=O)OCc1ccccc1)C(=O)NCCCO` (stereo unspecified), the TGI in the experiment with OVCAR-5 ovarian, with IGROV1 ovarian, in the experiment on RPMI-8226 leukemia, in the experiment with OVCAR-8 ovarian, in the experiment on A549 NSCLC and in the experiment with DU-145 prostate was above 100 µM in each case. Moreover, the TGI with OVCAR-3 ovarian, in the experiment on SK-MEL-2 melanoma, in the experiment with SR leukemia, in the experiment with OVCAR-4 ovarian, in the experiment on ACHN renal and with SF-268 CNS was above 100 µM throughout. The TGI in the experiment on BT-549 breast, in the experiment on KM12 colon, with HCT-116 colon, in the experiment on SW-620 colon and in the experiment with UACC-257 melanoma was above 100 µM each time.

On to `O=C(c1ccccc1)N1OCCC1Nc1ccc(Br)cc1` (stereo unspecified), for which the TGI with PC-3 prostate, in the experiment on OVCAR-5 ovarian, in the experiment with IGROV1 ovarian, in the experiment with RPMI-8226 leukemia, in the experiment on OVCAR-8 ovarian and in the experiment on A549 NSCLC was above 10 µM in each case. Further, the TGI with DU-145 prostate, in the experiment on OVCAR-3 ovarian, in the experiment on SK-MEL-2 melanoma, in the experiment with OVCAR-4 ovarian, in the experiment on ACHN renal and in the experiment with SF-268 CNS was above 10 µM each time. Also, the TGI with BT-549 breast, in the experiment with HCT-116 colon, in the experiment on SW-620 colon and in the experiment on UACC-257 melanoma was above 10 µM in each case.

`C=CCc1ccccc1CC1(OCC)OC(=O)c2ccccc21` (stereo unspecified): the TGI in the experiment with PC-3 prostate, with OVCAR-5 ovarian, in the experiment with IGROV1 ovarian, in the experiment on RPMI-8226 leukemia, in the experiment on OVCAR-8 ovarian and in the experiment on A549 NSCLC was above 100 µM throughout. The TGI with DU-145 prostate, with OVCAR-3 ovarian, in the experiment with SK-MEL-2 melanoma, in the experiment on OVCAR-4 ovarian, in the experiment with ACHN renal and with SF-268 CNS was above 100 µM throughout. In addition, the TGI with BT-549 breast, with HCT-116 colon, in the experiment with SW-620 colon and in the experiment with UACC-257 melanoma was above 100 µM in each case.

For the molecule `CC1=C(C)C1[N+](=O)[O-]`, the TGI in the experiment on PC-3 prostate, with OVCAR-5 ovarian, in the experiment with IGROV1 ovarian, in the experiment with RPMI-8226 leukemia, in the experiment on OVCAR-8 ovarian and with A549 NSCLC was above 100 µM throughout. Also, the TGI with DU-145 prostate, in the experiment on OVCAR-3 ovarian, in the experiment with OVCAR-4 ovarian, in the experiment with ACHN renal, with SF-268 CNS and with BT-549 breast was above 100 µM throughout. Further, the TGI with KM12 colon, in the experiment with HCT-116 colon, in the experiment on SW-620 colon and in the experiment on UACC-257 melanoma was above 100 µM in each case.

For the molecule `O=C1CCCC1C(O)(C(F)(F)F)C(F)(F)F` (stereo unspecified), the TGI with PC-3 prostate, with OVCAR-5 ovarian, in the experiment on IGROV1 ovarian, in the experiment with RPMI-8226 leukemia, with OVCAR-8 ovarian and in the experiment with A549 NSCLC was above 100 µM in each case. The TGI in the experiment on DU-145 prostate, with OVCAR-3 ovarian, in the experiment with SK-MEL-2 melanoma, in the experiment with SR leukemia, with OVCAR-4 ovarian and in the experiment with ACHN renal was above 100 µM each time. The TGI in the experiment with SF-268 CNS, with KM12 colon, in the experiment with HCT-116 colon, with SW-620 colon and in the experiment on UACC-257 melanoma was above 100 µM each time.

Take `COc1cc(/C=C2\C(=O)N(c3ccccc3Cl)C(c3ccccc3)S2(=O)=O)cc(OC)c1OC` (stereo unspecified): the TGI was above 100 µM in the experiment on OVCAR-5 ovarian; 42.9 µM in the experiment with RPMI-8226 leukemia; above 100 µM with OVCAR-8 ovarian; above 100 µM in the experiment on A549 NSCLC; above 100 µM with DU-145 prostate; above 100 µM in the experiment with OVCAR-3 ovarian. The TGI is above 100 µM with SK-MEL-2 melanoma; above 100 µM in the experiment on OVCAR-4 ovarian; above 100 µM with ACHN renal; above 100 µM in the experiment with SF-268 CNS; above 100 µM in the experiment with BT-549 breast; 83.5 µM with KM12 colon. The TGI in the experiment on HCT-116 colon, in the experiment with SW-620 colon and in the experiment with UACC-257 melanoma was above 100 µM throughout.

Take `O=S(Nc1ccccc1)c1ccc(Cl)c(Cl)c1` (stereo unspecified): the TGI with IGROV1 ovarian, in the experiment on RPMI-8226 leukemia, in the experiment with OVCAR-8 ovarian, in the experiment on A549 NSCLC, in the experiment with DU-145 prostate and with OVCAR-3 ovarian was above 100 µM throughout. In addition, the TGI is above 100 µM with SK-MEL-2 melanoma; above 100 µM in the experiment with SR leukemia; above 100 µM in the experiment on OVCAR-4 ovarian; above 100 µM in the experiment with ACHN renal; 82.9 µM in the experiment with SF-268 CNS; 54.4 µM in the experiment with BT-549 breast. In addition, the TGI with KM12 colon was 33.1 µM; with HCT-116 colon, above 100 µM; in the experiment on SW-620 colon, above 100 µM; in the experiment on UACC-257 melanoma, above 100 µM.

Take `Cc1ccc(/C=C2\CN(C)CC3C2=NN(c2ccccc2)C3c2ccc(C)cc2)cc1` (stereo unspecified): the TGI in the experiment with PC-3 prostate, in the experiment with IGROV1 ovarian, with OVCAR-8 ovarian, in the experiment on A549 NSCLC, in the experiment with DU-145 prostate and in the experiment on OVCAR-3 ovarian was above 100 µM in each case. The TGI in the experiment on SK-MEL-2 melanoma, with OVCAR-4 ovarian, in the experiment on ACHN renal, in the experiment on SF-268 CNS, in the experiment with BT-549 breast and in the experiment on KM12 colon was above 100 µM throughout. The TGI with HCT-116 colon, in the experiment on SW-620 colon and with UACC-257 melanoma was above 100 µM throughout.

Consider `Cc1c(Cl)c(S(N)(=O)=O)cc2c1NC=NS2(=O)=O`, for which the TGI with PC-3 prostate, with OVCAR-5 ovarian, in the experiment on IGROV1 ovarian, with RPMI-8226 leukemia, with OVCAR-8 ovarian and with A549 NSCLC was above 100 µM throughout. Also, the TGI in the experiment on DU-145 prostate, in the experiment on OVCAR-3 ovarian, in the experiment with OVCAR-4 ovarian, in the experiment on ACHN renal, with SF-268 CNS and with BT-549 breast was above 100 µM each time. The TGI in the experiment with KM12 colon, in the experiment on HCT-116 colon, in the experiment on SW-620 colon and in the experiment on UACC-257 melanoma was above 100 µM each time.

In the case of `CN1C(=O)C(c2c[nH]c3ccccc23)N(C)C(=O)C1c1c[nH]c2ccccc12` (stereo unspecified), the TGI in the experiment with PC-3 prostate, in the experiment with OVCAR-5 ovarian, in the experiment on IGROV1 ovarian, in the experiment with OVCAR-8 ovarian, in the experiment with A549 NSCLC and with DU-145 prostate was above 100 µM each time. Further, the TGI in the experiment with OVCAR-3 ovarian, with OVCAR-4 ovarian, in the experiment on ACHN renal, with SF-268 CNS, in the experiment on BT-549 breast and with KM12 colon was above 100 µM each time. Further, the TGI in the experiment on HCT-116 colon, with SW-620 colon and in the experiment with UACC-257 melanoma was above 100 µM in each case.

Values taken from PubChem BioAssay (NCI).
